Holding throughout (assay type): functional
For one test, the system named is MCF7. In words: Cytotoxicity against human MCF7 cells.
Another test deals with Escherichia coli. In words: Antibacterial activity against Escherichia coli ATCC 25922.
Another test has as its system B16. The test can be described thus: Cytotoxicity against mouse B16 cells.
Test [1] deals with Mycobacterium tuberculosis. The test can be described thus: Antimycobacterial activity against Mycobacterium tuberculosis H37Rv.
The test system of a further test is HCT-8. In words: Cytotoxicity against human HCT8 cells.
The next test concerns Staphylococcus aureus. The test can be described thus: Antibacterial activity against Staphylococcus aureus ATCC 25923.

Turning to `OC1/C=C\C=C/CCN2CC3C=C4CCCCCCCCCC/C=C\CCN5CCC3C(C1)(C5)C42` (stereo unspecified) [INGENAMINE G], the Activity was determined as 11.3 µg/mL in the test with MCF7; 75 µg/mL in the test with Escherichia coli; 9.8 µg/mL in the test with B16; 8 µg/mL in test [1]; 8.6 µg/mL in the test with HCT-8; 105 µg/mL with Staphylococcus aureus.
